Data reported in patent publication US3932650A, “Trans-octahydropyridoindolobenzazepines as central nervous system depressants” (E. I. Du Pont de Nemours & Company, priority 1973, dated 1976).
Like-named read-outs stand apart in the source and are kept apart here.

Experiments:
[1] = tested on: eyelid closure (ptosis); experiment: Ptosis, rat; type: in vivo; conditions: rat, po; passive ptosis; read-out: Ptosis MED
From the text: Degree of eyelid closure is used as a measure of central nervous system depression. An animal is removed from its observation cage and allowed to remain outside the cage for 30 seconds. At the end of this time a rating of degree of eyelid closure is made on an arbitrary scale.

[2] = tested on: TBZ-induced ptosis; experiment: Tetrabenazine Antagonism (T.B.Z.A.), mouse; type: in vivo; conditions: 1 h; mouse, po; TBZ 40 mg/kg s.c. one hour after compound; read-out: T.B.Z.A. ED50
Procedure: (§1) Tetrabenazine Antagonism (T.B.Z.A.)
(§2) The tetrabenazine (TBZ) antagonism test is used to test for potential antidepressant-like activity in rodents. One hour after oral administration of a test compound, a 40 mg/kg dose of TBZ is given subcutaneously. Thirty minutes after TBZ administration, the mice are placed in the center of a circle; the diameter of the circle is twice the body length of the mouse or rat. After 30 seconds, a reading is made of the degree of ptosis and whether the animal has moved out of the circle. Animals that have received only TBZ will show marked ptosis and immobility. Tricyclic antidepressants of the imipramine type will antagonize the ptosis but not the immobility. Antidepressants of the amphetamine or monoamine oxidase inhibitory type will antagonize both the ptosis and immobility induced by TBZ. The ED50 is the dose producing antagonism of TBZ-induced ptosis, but not of TBZ-induced immobility, in 50% of the animals.

[3] = tested on: eyelid closure (ptosis); experiment: Ptosis, mouse; type: in vivo; conditions: mouse, po; passive ptosis; read-out: Ptosis MED
[4] = tested on: conditioned avoidance response; experiment: Conditioned Avoidance Response (C.A.R.), mouse; type: in vivo; conditions: mouse, po; block of C.A.R. in 50% of animals; 1, 2, and 4 hours; read-out: C.A.R. ED50
Procedure: (§3) Mouse and Rat Conditioned Avoidance Response (C.A.R.):
(§4) Mice and rats are trained to jump out of a pit onto a ledge to avoid shock when presented with a light and sound conditioned stimulus. The animals are tested 1, 2, and 4 hours after administration of the test compound. Three to four dose levels and groups of 4-8 animals/dose are used. The ED50 is the dose producing a block of the C.A.R. in 50% of the animals. Blocking of the C.A.R. at non-toxic doses appears to correlate with major tranquilizer activity in man.

[5] = tested on: locomotor activity; experiment: Decreased Locomotor Activity (L.M.A.), mouse; type: in vivo; conditions: mouse, po; minimal effective dose; read-out: L.M.A. MED
Procedure: (§5) Decreased Locomotor Activity (L.M.A.)
(§6) This reaction sign is measured subjectively by observing how an animal behaves when it is removed from an observation cage and placed on a table top. […] The degree of stimulation by the observer needed to produce active locomotion is rated on an arbitrary scale. This ranges from a score of -1 where only a slight touch of the animal's body is required to a -4 where the animal is unresponsive or minimally responsive to the application of a pain stimulus (pressure at the base of the tail). The minimal effective dose (MED) is the lowest oral dose producting an obvious decrease of locomotor activity (with a score of at least -1). Groups of 3 mice are given decreasing oral doses at 0.5 log intervals (300, 100, 30. . .etc.) until no behavioral effects are evident. Decrease of locomotor activity is indicative of general central nervous system depressant activity.

[6] = tested on: catalepsy; experiment: Catalepsy, mouse; type: in vivo; conditions: mouse, po; read-out: Catalepsy MED
From the text: (§7) The ability of an animal to remain in an abnormal position is used as another indication of central nervous system depressant activity. A test animal is removed from its observation cage and positioned so that its hind legs are on the table top and its front legs rest on the side of the observation cage. If an animal maintains this position for at least 10 seconds, it is considered to be showing cataleptic behavior.

[7] = tested on: fear / feeding in approach-avoidance conflict; experiment: Rat Conflict (Approach-Avoidance) Test; type: in vivo; conditions: rat, po; after 1 or 2 hours; read-out: Conflict MED
Procedure: Rat Conflict (Approach-Avoidance) Test (Conflict)
Results given in: mg/kg po/rat
Food deprived rats are trained to pass from one compartment to an adjacent one to obtain food. The training consists of 3 exposures to the test situation on day one of the experiment. The rats are given limited (1-2 hr) free access to food in their home cages on day one and are then food deprived for at least 18 hours. On day two of the experiment, the rats are given a control exposure to the test situation followed by a second exposure after one-half to 1 hour in which they are shocked after crossing and eating. Groups of 6-8 rats are then dosed orally with solvent or test compound and then re-exposed to the test situation after 1 or 2 hours.
Compounds showing minor tranquilizer (anxiolytic) activity in man such as diazepam and meprobamate produce an apparent decreased fear in the test animals so that they cross to obtain food despite having received a shock earlier. This effect is dose-related (and the MED is the minimum dose at which this effect is obtained); rats dosed with solvent only consistently show a high level of fear as evidenced by decreased mobility and absence of feeding when placed in the test situation after receiving a shock.

[8] = tested on: TBZ-induced ptosis; experiment: Tetrabenazine Antagonism (T.B.Z.A.), rat; type: in vivo; conditions: 1 h; rat, po; TBZ 40 mg/kg s.c. one hour after compound; read-out: T.B.Z.A. ED50
Procedure: as §1, §2

[9] = tested on: conditioned avoidance response; experiment: Dog Conditioned Avoidance Response (C.A.R.); type: in vivo; conditions: Canis lupus familiaris; dog, po; 5 or more incorrect responses in 50% of animals; 1, 2, and 4 hours; read-out: C.A.R. ED50
Procedure: Dog Conditioned Avoidance Response (C.A.R.):
Results given in: mg/kg po/dog
Dogs are trained to raise a forelimb when presented with a conditioned stimulus (light) in order to avoid an electric shock. Blocks of 10 trials are given to groups of 4 dogs during a pretreatment period and at 1, 2, and 4 hours after oral administration of the test compound. The ED50 values are calculated as the dose causing 50% of the animals to show 5 or more incorrect responses. Blocking of the C.A.R. at non-toxic doses appears to correlate with major tranquilizer activity in man.

[10] = tested on: conditioned avoidance response; experiment: Conditioned Avoidance Response (C.A.R.), rat; type: in vivo; conditions: rat, po; block of C.A.R. in 50% of animals; 1, 2, and 4 hours; read-out: C.A.R. ED50
Procedure: as §3, §4

[11] = tested on: taming; experiment: Rhesus Monkey Taming Effects; type: in vivo; conditions: Macaca mulatta; rhesus monkey, po; read-out: Taming MED
Procedure: Rhesus Monkey Taming Effects (Taming):
Results given in: mg/kg po/monkey
Compounds are administered orally to groups of 6 rhesus monkeys. The behavior of the animals is then evaluated by observational means. Taming effects are determined by the ability of the observer to approach and touch the monkey. Compounds with major tranquilizer activity in man can produce a state of passive tameness in the rhesus monkey wherein it can be touched without provoking any of the threatening or aggressive behavior seen in the normal animal. The MED is the minimal oral dose at which some taming effect can be observed.

[12] = tested on: phenyl-p-benzoquinone-induced writhing; experiment: Phenylquinone Writhing (P.Q.W.); type: in vivo, mouse; conditions: 0.5 h; mouse, po; phenyl-p-benzoquinone 2.5 mg/kg i.p. 30 minutes after compound; read-out: P.Q.W. ED50
[13] = tested on: catalepsy; experiment: Catalepsy, rat; type: in vivo; conditions: rat, po; read-out: Catalepsy MED
From the text: as §7

[14] = tested on: locomotor activity; experiment: Decreased Locomotor Activity (L.M.A.), rat; type: in vivo; conditions: po; minimal effective dose; read-out: L.M.A. MED
Procedure: as §5, §6

[15] = tested on: locomotor activity; experiment: LMA, comparison with chlorpromazine; type: in vivo; conditions: read-out: LMA (*ED50?)
[16] = tested on: catalepsy; experiment: Catalepsy, comparison with chlorpromazine; type: in vivo; conditions: read-out: Catalepsy (*ED50?)
[17] = tested on: eyelid closure (ptosis); experiment: Ptosis, comparison with chlorpromazine; type: in vivo; conditions: read-out: Ptosis (*ED50?)

SMILES	minimal effective dose [1] [mg/kg]	ED50 [2] [mg/kg]	minimal effective dose [3] [mg/kg]	ED50 [4] [mg/kg]	minimal effective dose [5] [mg/kg]	minimal effective dose [6] [mg/kg]	minimal effective dose [7] [mg/kg]	ED50 [8] [mg/kg]	ED50 [9] [mg/kg]	ED50 [10] [mg/kg]	minimal effective dose [11] [mg/kg]	ED50 [12] [mg/kg]	minimal effective dose [13] [mg/kg]	minimal effective dose [14] [mg/kg]	ED50 ([15]; species not given) [mg/kg]	ED50 ([16]; species not given) [mg/kg]	ED50 ([17]; species not given) [mg/kg]	ED50 [15] [mg/kg]	ED50 [16] [mg/kg]	ED50 [17] [mg/kg]
c1ccc2c(c1)CCc1cccc3c1N2[C@@H]1CCN(CC2CC2)C[C@@H]31 (relative stereo) [Example 2, trans-3-(Cyclopropylmethyl)-1,2,3,4,4a,8,9,14a-octahydropyrido[4',3':2,3]indolo[1,7-ab][1]benzazepine]	3	> 100	10	0.7	3	3	> 40	> 100	3	0.7	1	2.3	3	1						
CC(C)CN1CC[C@@H]2[C@@H](C1)c1cccc3c1N2c1ccccc1CC3 (relative stereo) [Example 5, trans-1,2,3,4,4a,8,9,14a-Octahydro-3-isobutylpyrido[4',3':2,3]indolo[1,7-ab][1]benzazepine]	5		8		2	2						1.75	6	4	4	6	5			
CN(C)CCCN1c2ccccc2Sc2ccc(Cl)cc21 [Chlorpromazine]																		5	6	6
